Consider five molecules from patent US20070123518A1, “Product designed to protentiate the therapeutic effects and to enhance the action of medicinal preparations” (priority 2003, published 2007).

Molecules are shown by their SMILES.

Common to all, as to assay type: in vivo
For assay [1], the system named is rats in conflict situation. Description: Conflict situation model of Vogel, phenazepam. The procedure:
Anxiolytic activity of phenazepam was studied by conflict situation model of Vogel J., 1971 in rats. Phenazepam was applied in 1) therapeutic dose, 2) activated form or 3) combination of therapeutic dose of phenazepam and activated form of the same medication. Therapeutic doses of Phenazepam (1 mg/kg) were injected intraperitoneally; activated form containing the mixture of homeopathic dilutions C12+C30+C200, was given at 2.5 ml/kg of animal's body weight intraperitoneally; combined treatment included simultaneous injections of both forms in two different syringes. The effect was evaluated after 20 minutes following to medication injections by the quantity of punished water intakes.

Assay [2] concerns patients suffering from generalized anxiety syndrome. Description: Hamilton's scale of anxiety in patients with generalized anxiety syndrome, diazepam. The source says: Benzodiazepines represent reference medications for the treatment of anxious states. However, application of benzodiazepines is frequently associated with adverse effects that require dose reduction to minimal effective doses. Investigation of impacts induced by ultra-low doses of activated form of diazepam on the anxiolytic activity of therapeutic doses of diazepam was accomplished in 20 patients suffering from generalized anxiety syndrome characterized with the anxiety level consistent with at least 20 grades of Hamilton's scale of anxiety. Patients received tablets containing activated form of diazepam in ultra-low doses (homeopathic dilution C200, equivalent concentration—10^−400M mass concentration)—1 tablet 4 times a day for 14 days. Thereafter, beginning from 15th to 30th day of therapy patients were took per oral diazepam at the dose of 2 mg qid day (daily dose—8 mg) followed by administration of ultra-low doses of activated form of the very medication 4 tablets per day for 7 days and by combined treatment implicating simultaneous intake of activated form (4 tablets a day) and diazepam (8 mg per day) for 14 days. Anxiety level was evaluated by means of Hamilton's scale at baseline and after each stage of therapy.

The test system of assay [3] is patients suffering from definite rheumatoid arthritis (oligoarthritis). Description: Clinical trial in rheumatoid arthritis (oligoarthritis), duration of effect of hydrocortisone injections. The note with it: 20 patients, hydrocortisone 20-25 mg peri- or intra-articular; activated form per os over 8 weeks. As to the method:
Twenty patients suffering from definite rheumatoid arthritis (oligoarthritis) necessitating peri- or intra-articular injections of hydrocortisone were included in the clinical trial of influences of activated form (ultra-low doses) of anti-inflammatory agent—hydrocortisone on the therapeutic activity of hydrocortisone in relation with arthritis manifestations. At baseline all patients required injections of 20-25 mg hydrocortisone 2-3 times a week (up on request). Over 8 weeks patients received activated form of hydrocortisone in ultra-low doses per orally—1 tablet for dissolution in the mouth (activated form—mixture of homeopathic dilutions C12+C30+C200, equivalent concentration 10^−24M mass concentration) together with injections. Impacts of activated form were evaluated in accordance with duration of periods, when patients were independent from hydrocortisone injections.

Assay [4] deals with rats in conflict situation. Description: Conflict situation model of Vogel, ethanol in drinking bowl. To be noted: solution in the drinking bowl, mixture 10:1 volumetric ratio.
Experimental: Anxiolytic effect was evaluated in accordance with the number of punished water intakes.
The subject of assay [5] is Rat model of adjuvant arthritis. The assay is described as follows: Rat model of adjuvant arthritis (complete Freund's adjuvant), prednisone. To be noted: rats, into the stomach; prednisone 2 mg/kg; activated form D24+D60 2.5mg/kg; combined 10:1. As to the method:
Rat model of adjuvant arthritis induced by single subplantar injection of 100 μl of complete Freund's adjuvant was applied for evaluation of anti-inflammatory activity of glucocorticosteroid agent—prednisone in following treatment choices: a) therapeutic dose, b) activated (potentiated) form (ultra-low dose), c) combined treatment with therapeutic dose and activated form. Soon after the injection of complete Freund's adjuvant animals (10 rats per group) received prednisone in therapeutic dose, in activated form or their combination (control—distilled water)—for 14 days.
2 mg/kg prednisone (water solution) was given into the stomach; activated form of prednisone in ultra-low doses—mixture of homeopathic dilutions D24+D60 was injected in the form of water solution at the dose of 2.5mg/kg of animal's body weight into stomach; both forms mixed at 10:1 ratio were injected at one time during combined treatment.
Severity of inflammatory damage to each extremity (0 to 4) and overall index of arthritis severity (0 to 16) were assessed once per 1-2 days. Functional disturbances, erythema, edema and deformation of extremities were taken into account. Anti-inflammatory efficacy of the medications was evaluated in accordance with reduction of overall index of arthritis severity by the 2-3rd and 14th days of treatment.

With `O=C1CN=C(c2ccccc2Cl)c2cc(Br)ccc2N1` [Phenazepam, phenazepam], in assay [1] (rats, intraperitoneally, 20 minutes after injection, phenazepam 1 mg/kg, activated form 2.5 ml/kg), the “Number of punished water intakes” value came to 415.67 ± 113.96. For the same molecule, the “anxiolytic activity (in words)” value in assay [1] (versus control) is listed as “possesses anxiolytic activity”.

For the molecule `CN1C(=O)CN=C(c2ccccc2)c2cc(Cl)ccc21` [diazepam], in assay [2] (20 patients, after the stage of therapy: activated form 2 weeks, then diazepam 8 mg/day, last stage combined 14 days), the “Overall level of anxiety in accordance with Hamilton's scale” value was found to be 16.2 ± 2.5 grades. In addition, in assay [2] (Hamilton's scale, after the stage of therapy), the improvement versus baseline is recorded as 26%. Further, in assay [2] (dynamic changes in anxiety level), the “anxiolytic effect (in words)” value was “does not yield achievement of pronounced decline of anxiety”.

As to `C[C@]12CCC(=O)C=C1CC[C@@H]1[C@@H]2[C@@H](O)C[C@@]2(C)[C@H]1CC[C@]2(O)C(=O)CO` [Hydrocortisone, hydrocortisone], the “Duration effects of injections (time lag between injections "upon request")” value in assay [3] was 2.8 ± 0.3 days. Turning to `CCO` [Ethanol 10%, ethanol], the “Number of punished water intakes” value in assay [4] came out at 317.2 ± 41.0. As for `C[C@]12C=CC(=O)C=C1CC[C@@H]1[C@@H]2C(=O)C[C@@]2(C)[C@H]1CC[C@]2(O)C(=O)CO` [Prednisone, prednisone], in assay [5], the “Arthritis severity index by 14th day of therapy” value came to 5.4 ± 1.7 grades and the “Arthritis severity index by the 2-3rd day of therapy” value was 2.1 ± 0.4 grades.
